The values below come from patent US20230257372A1 (CHONG KUN DANG PHARMACEUTICAL CORP., priority 2020, published 2023).

Like-named read-outs stand apart in the source and are kept apart here. Bounds are passed on as bounds.

For assay [1], the target named is T1, human recombinant HDAC1 (Homo sapiens, UniProt Q13547).
T1 construct: purchased Enzo Life Science, Inc. BML-SE456
The assay can be described thus: HDAC1 enzyme activity inhibition (HDAC Fluorimetric Drug Discovery Kit). In kind it is biochemical. The following applies: read-out: HDAC1. The method in brief:
(§1)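 Fluorimetric deacetylase read-out: after 30 min with Developer II following a 60 min, 30° C reaction of recombinant enzyme ([…]) with 10 μM substrate, across five-fold serial compound dilutions.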

Assay [2] addresses T2, human recombinant HDAC6 (Homo sapiens, UniProt Q9UBN7).
T2 construct: purchased Calbiochem Inc. 382180
T2 sequence (Q9UBN7 1-1215): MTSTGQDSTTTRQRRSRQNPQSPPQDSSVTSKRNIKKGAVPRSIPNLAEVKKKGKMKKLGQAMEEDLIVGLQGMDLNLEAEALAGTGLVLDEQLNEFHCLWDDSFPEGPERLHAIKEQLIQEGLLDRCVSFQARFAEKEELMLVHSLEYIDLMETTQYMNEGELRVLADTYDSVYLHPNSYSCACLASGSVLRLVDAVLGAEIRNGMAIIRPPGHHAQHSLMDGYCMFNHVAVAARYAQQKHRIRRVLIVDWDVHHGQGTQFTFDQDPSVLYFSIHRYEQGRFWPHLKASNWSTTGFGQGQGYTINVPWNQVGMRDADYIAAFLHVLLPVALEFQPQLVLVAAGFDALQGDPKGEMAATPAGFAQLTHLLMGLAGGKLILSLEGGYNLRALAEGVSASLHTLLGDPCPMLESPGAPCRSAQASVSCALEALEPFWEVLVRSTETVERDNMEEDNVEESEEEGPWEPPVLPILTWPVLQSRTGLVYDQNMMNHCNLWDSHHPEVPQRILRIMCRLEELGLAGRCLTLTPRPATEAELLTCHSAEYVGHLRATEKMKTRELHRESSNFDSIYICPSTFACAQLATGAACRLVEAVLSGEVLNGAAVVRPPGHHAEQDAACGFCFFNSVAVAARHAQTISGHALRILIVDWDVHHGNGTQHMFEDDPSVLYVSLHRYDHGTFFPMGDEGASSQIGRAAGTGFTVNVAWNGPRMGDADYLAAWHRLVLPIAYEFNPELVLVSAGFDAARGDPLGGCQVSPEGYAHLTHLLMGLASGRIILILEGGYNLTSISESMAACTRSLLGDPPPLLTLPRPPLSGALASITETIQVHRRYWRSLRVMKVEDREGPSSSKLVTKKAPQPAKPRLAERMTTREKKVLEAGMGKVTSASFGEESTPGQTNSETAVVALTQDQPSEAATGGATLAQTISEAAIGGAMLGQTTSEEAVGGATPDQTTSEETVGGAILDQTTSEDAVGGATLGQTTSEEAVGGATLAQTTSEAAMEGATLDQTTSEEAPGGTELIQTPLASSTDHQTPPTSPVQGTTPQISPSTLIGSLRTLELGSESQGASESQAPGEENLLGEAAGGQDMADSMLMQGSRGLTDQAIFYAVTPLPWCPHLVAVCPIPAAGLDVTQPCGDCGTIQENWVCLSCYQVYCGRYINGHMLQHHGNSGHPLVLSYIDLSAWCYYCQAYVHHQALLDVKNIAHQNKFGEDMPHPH
In words: HDAC6 enzyme activity inhibition (HDAC Fluorimetric Drug Discovery Kit). In kind it is biochemical. The method in brief: as §1

Where [3] appears, read: human recombinant HDAC1, IC50 calculated with GraphPad Prism.
Setting [4] is: human recombinant HDAC6, IC50 calculated with GraphPad Prism.
Where [5] appears, read: human recombinant HDAC1, Fluor de Lys substrate, 30° C. 60 minutes.
Where [6] appears, read: human recombinant HDAC6, same protocol as HDAC1.

T1 sequence (Q13547 whole entry): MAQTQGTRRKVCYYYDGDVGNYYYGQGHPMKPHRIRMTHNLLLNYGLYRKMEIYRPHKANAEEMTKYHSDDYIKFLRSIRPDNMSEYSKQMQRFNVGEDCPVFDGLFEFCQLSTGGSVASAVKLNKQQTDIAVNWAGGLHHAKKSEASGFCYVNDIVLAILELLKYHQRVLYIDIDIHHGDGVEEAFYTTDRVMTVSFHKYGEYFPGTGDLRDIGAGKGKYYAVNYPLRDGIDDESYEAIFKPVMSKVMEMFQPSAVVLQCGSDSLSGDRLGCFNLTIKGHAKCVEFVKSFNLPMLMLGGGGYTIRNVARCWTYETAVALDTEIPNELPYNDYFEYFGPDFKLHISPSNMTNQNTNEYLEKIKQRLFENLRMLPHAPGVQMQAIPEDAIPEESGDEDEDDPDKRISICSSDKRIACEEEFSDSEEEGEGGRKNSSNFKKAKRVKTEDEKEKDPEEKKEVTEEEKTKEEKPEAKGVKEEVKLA

`CN1CCc2ccc(-c3cn(Cc4ccc(-c5nnc(C(F)F)o5)cc4F)nn3)cc2C1` [Compound 4363, 2-(difluoromethyl)-5-(3-fluoro-4-((4-(2-methyl-1,2,3,4-tetrahydroisoquinolin-7-yl)-1H-1,2,3-triazol-1-yl)methyl)phenyl)-1,3,4-oxadiazole]: the values for the IC50 in assay [1] (setting [3]) and in assay [2] (setting [4]) were more than 50000 nM and 36.1 nM, respectively. In addition, the “HDAC6 selectivity (fold)” value in assay [2] (HDAC1 IC50 / HDAC6 IC50) is 1385 fold.

On to `Fc1cc(-c2nnc(C(F)F)o2)ccc1Cn1cc(-c2cn[nH]c2)nn1` [Compound 17261, 2-(4-((4-(1H-pyrazol-4-yl)-1H-1,2,3-triazol-1-yl)methyl)-3-fluorophenyl)-5-(difluoromethyl)-1,3,4-oxadiazole], for which the IC50 in assay [1] (setting [5]) is more than 50000 nM; in assay [2] (setting [6]), 49.4 nM. For the same molecule, the “HDAC6 selectivity (fold)” value in assay [2] (HDAC6 over HDAC1) was found to be 1012 fold.

Take `CC(C)N1CCc2cc(-c3cn(Cc4ccc(-c5nnc(C(F)F)o5)cc4F)nn3)ccc2C1` [Compound 4360, 2-(difluoromethyl)-5-(3-fluoro-4-((4-(2-isopropyl-1,2,3,4-tetrahydroisoquinolin-6-yl)-1H-1,2,3-triazol-1-yl)methyl)phenyl)-1,3,4-oxadiazole]: the IC50 in assay [1] (setting [3]) was more than 50000 nM; in assay [2] (setting [4]) it was 56.7 nM. Moreover, in assay [2] (HDAC1 IC50 / HDAC6 IC50), the “HDAC6 selectivity (fold)” value is 881 fold.

For `FC(F)c1nnc(-c2ccc(Cn3cc(-c4ccc(Cl)nc4)nn3)nc2)o1` [Compound 3882, 2-(6-((4-(6-chloropyridin-3-yl)-1H-1,2,3-triazol-1-yl)methyl)pyridin-3-yl)-5-(difluoromethyl)-1,3,4-oxadiazole], the IC50 in assay [1] (setting [3]) was more than 50000 nM; in assay [2] (setting [4]), 50.6 nM. Also, the “HDAC6 selectivity (fold)” value in assay [2] (HDAC1 IC50 / HDAC6 IC50) was determined as 988 fold.

`FC(F)(F)c1nnc(-c2ccc(Cn3nnc(-c4ccccc4)n3)nc2)o1` [Compound 4235]: the figures for the IC50 in assay [1] (setting [3]) and in assay [2] (setting [4]) were more than 50000 nM and 172 nM, respectively. Moreover, the “HDAC6 selectivity (fold)” value in assay [2] (HDAC1 IC50 / HDAC6 IC50) stood at 290 fold.

On to `FC(F)c1nnc(-c2ccc(Cn3cc(-c4cccc5cc[nH]c45)nn3)cc2)o1` [Compound 4081, 2-(4-((4-(1H-indol-7-yl)-1H-1,2,3-triazol-1-yl)methyl)phenyl)-5-(difluoromethyl)-1,3,4-oxadiazole], for which the figures for the IC50 in assay [1] (setting [3]) and in assay [2] (setting [4]) were more than 50000 nM and 105 nM, respectively. Besides, the “HDAC6 selectivity (fold)” value in assay [2] (HDAC1 IC50 / HDAC6 IC50) is on record as 478 fold.

Consider `CN(C)CCC(=O)Nc1cccc(-c2cn(Cc3ccc(-c4nnc(C(F)F)o4)cc3F)nn2)c1` [Compound 4335], for which the IC50 in assay [1] (setting [3]) was more than 50000 nM; in assay [2] (setting [4]) it was 62.7 nM. The “HDAC6 selectivity (fold)” value in assay [2] (HDAC1 IC50 / HDAC6 IC50) stood at 797 fold.

For the molecule `CCN1Cc2cccc(-c3cn(Cc4ccc(-c5nnc(C(F)F)o5)cn4)nn3)c2C1` [Compound 4596, 2-(difluoromethyl)-5-(6-((4-(2-ethylisoindolin-4-yl)-1H-1,2,3-triazol-1-yl)methyl)pyridin-3-yl)-1,3,4-oxadiazole], the IC50 in assay [1] (setting [5]) is more than 50000 nM; in assay [2] (setting [6]), 63.9 nM. The “HDAC6 selectivity (fold)” value in assay [2] (HDAC6 over HDAC1) was found to be 782 fold.

With `Fc1cc(-c2nnc(C(F)F)o2)ccc1Cn1cc(-c2ccc(CN3CCCC3)c(Cl)c2)nn1` [Compound 18713, 2-(4-((4-(3-chloro-4-(pyrrolidin-1-ylmethyl)phenyl)-1H-1,2,3-triazol-1-yl)methyl)-3-fluorophenyl)-5-(difluoromethyl)-1,3,4-oxadiazole], the IC50 was more than 50000 nM in assay [1] (setting [5]) and 72.9 nM in assay [2] (setting [6]). In assay [2] (HDAC6 over HDAC1), the “HDAC6 selectivity (fold)” value was 685 fold.

As for `CN1C[C@@H]2C[C@H]1CN2c1cc(-c2cn(Cc3ccc(-c4nnc(C(F)F)o4)cc3)nn2)ccc1F` [Compound 4429, 2-(difluoromethyl)-5-(4-((4-(4-fluoro-3-((1S,4S)-5-methyl-2,5-diazabicyclo[2.2.1]heptan-2-yl)phenyl)-1H-1,2,3-triazol-1-yl)methyl)phenyl)-1,3,4-oxadiazole], the IC50 is more than 50000 nM in assay [1] (setting [3]) and 66.9 nM in assay [2] (setting [4]). Further, the “HDAC6 selectivity (fold)” value in assay [2] (HDAC1 IC50 / HDAC6 IC50) amounted to 747 fold.

`Fc1cc(-c2nnc(C(F)F)o2)ccc1Cn1cc(-c2ccc(CN3CC[C@H](F)C3)nc2)nn1` [Compound 17773, (S)-2-(difluoromethyl)-5-(3-fluoro-4-((4-(6-((3-fluoropyrrolidin-1-yl)methyl)pyridin-3-yl)-1H-1,2,3-triazol-1-yl)methyl)phenyl)-1,3,4-oxadiazole]: the IC50 in assay [1] (setting [5]) is more than 50000 nM; in assay [2] (setting [6]) it was 65 nM. In assay [2] (HDAC6 over HDAC1), the “HDAC6 selectivity (fold)” value stood at 769 fold.

Turning to `FC(F)c1nnc(-c2ccc(Cn3cc(-c4cccc(CN5CCOCC5)c4)nn3)cc2)o1` [Compound 4411, 4-(3-(1-(4-(5-(difluoromethyl)-1,3,4-oxadiazol-2-yl)benzyl)-1H-1,2,3-triazol-4-yl)benzyl)morpholine], the IC50 in assay [1] (setting [3]) is more than 50000 nM; in assay [2] (setting [4]) it was 75.5 nM. Also, the “HDAC6 selectivity (fold)” value in assay [2] (HDAC1 IC50 / HDAC6 IC50) was found to be 662 fold.

Take `Fc1cc(-c2nnc(C(F)F)o2)ccc1Cn1cc(-c2ccc3c(c2)CN(C2CCOCC2)C3)nn1` [Compound 17458, 2-(difluoromethyl)-5-(3-fluoro-4-((4-(2-(tetrahydro-2H-pyran-4-yl)isoindolin-5-yl)-1H-1,2,3-triazol-1-yl)methyl)phenyl)-1,3,4-oxadiazole]: the results for the IC50 in assay [1] (setting [5]) and in assay [2] (setting [6]) were more than 50000 nM and 80.7 nM, respectively. Also, the “HDAC6 selectivity (fold)” value in assay [2] (HDAC6 over HDAC1) is 619 fold.

With `Fc1cc(-c2nnc(C(F)F)o2)ccc1Cn1cc(-c2ccc(C3CN(C4CCC4)C3)cc2)nn1` [Compound 17699, 2-(4-((4-(4-(1-cyclobutylazetidin-3-yl)phenyl)-1H-1,2,3-triazol-1-yl)methyl)-3-fluorophenyl)-5-(difluoromethyl)-1,3,4-oxadiazole], the IC50 in assay [1] (setting [5]) was more than 50000 nM; in assay [2] (setting [6]) it was 47.9 nM. Also, the “HDAC6 selectivity (fold)” value in assay [2] (HDAC6 over HDAC1) is on record as 1043 fold.

As for `Fc1cc(-c2nnc(C(F)F)o2)ccc1Cn1cc(-c2ccc(CN3CC[C@H](F)C3)s2)nn1` [Compound 17916], the IC50 in assay [1] (setting [5]) was more than 50000 nM; in assay [2] (setting [6]), 89.8 nM. In addition, in assay [2] (HDAC6 over HDAC1), the “HDAC6 selectivity (fold)” value is recorded as 556 fold.

Turning to `CC(=O)N1CCC(Nc2cccc(-c3cn(Cc4ccc(-c5nnc(C(F)F)o5)cc4F)nn3)c2F)CC1` [Compound 4433, 1-(4-((3-(1-(4-(5-(difluoromethyl)-1,3,4-oxadiazol-2-yl)-2-fluorobenzyl)-1H-1,2,3-triazol-4-yl)-2-fluorophenyl)amino)piperidin-1-yl)ethan-1-one], the IC50 was more than 50000 nM in assay [1] (setting [3]) and 33.1 nM in assay [2] (setting [4]). In addition, the “HDAC6 selectivity (fold)” value in assay [2] (HDAC1 IC50 / HDAC6 IC50) is recorded as 1510 fold.

Take `CN(C)[C@@H]1CCN(Cc2ccc(-c3cn(Cc4ccc(-c5nnc(C(F)F)o5)cc4F)nn3)cc2)C1` [Compound 4605, (R)-1-(4-(1-(4-(5-(difluoromethyl)-1,3,4-oxadiazol-2-yl)-2-fluorobenzyl)-1H-1,2,3-triazol-4-yl)benzyl)-N,N-dimethylpyrrolidin-3-amine]: the IC50 is more than 50000 nM in assay [1] (setting [5]) and 21 nM in assay [2] (setting [6]). For the same molecule, in assay [2] (HDAC6 over HDAC1), the “HDAC6 selectivity (fold)” value was 2380 fold.

`Fc1cc(-c2cn(Cc3ncc(-c4nnc(C(F)F)o4)cc3F)nn2)ccc1CN1CCCCC1` [Compound 18950, 2-(difluoromethyl)-5-(5-fluoro-6-((4-(3-fluoro-4-(piperidin-1-ylmethyl)phenyl)-1H-1,2,3-triazol-1-yl)methyl)pyridin-3-yl)-1,3,4-oxadiazole]: the IC50 in assay [1] (setting [5]) is more than 50000 nM; in assay [2] (setting [6]), 87.6 nM. The “HDAC6 selectivity (fold)” value in assay [2] (HDAC6 over HDAC1) turned out to be 570 fold.

For the molecule `Fc1cc(-c2nnc(C(F)F)o2)cnc1Cn1cc(-c2ccc(CN3CCC3)cn2)nn1` [Compound 18622, 2-(6-((4-(5-(azetidin-1-ylmethyl)pyridin-2-yl)-1H-1,2,3-triazol-1-yl)methyl)-5-fluoropyridin-3-yl)-5-(difluoromethyl)-1,3,4-oxadiazole], the IC50 is more than 50000 nM in assay [1] (setting [5]) and 82.4 nM in assay [2] (setting [6]). For the same molecule, the “HDAC6 selectivity (fold)” value in assay [2] (HDAC6 over HDAC1) was determined as 606 fold.
